From patent US20070020340A1, “Fish oil products for reducing cholesterol, low density lipoprotein, and hypertension” (priority 2005, published 2007)

Assays:
[1] = tested on: men with moderately elevated cholesterol who also suffered from moderate to high hypertension; assay: 16-week study of fish oil (EPA/DHA) with or without allicin, oleuropein or Policosanol in eight treatment groups; format: in vivo, human; conditions: after sixteen weeks of daily treatment
Protocol: Eighty men with moderately elevated cholesterol who also suffered from moderate to high hypertension, were assigned to one of eight treatment groups, and followed for 16 weeks. The EPA and DHA administered was from fish oil and in free fatty acid form containing 3 grams of EPA and 2 grams of DHA, administered daily. Group one received fish oil alone. Group two received the same amount of fish oil with 5 mg allicin dissolved in the fish oil. Group three received the same amount of fish oil with 100 mg oleuropein dissolved therein. Group four received the same amount of fish oil with 10 mg of Policosanol dissolved therein. Group five received soft gelatin capsules with sunflower oil rather than fish oil. Group six received 5 mg of allicin dissolved in sunflower oil. Group seven received 100 mg oleuropein dissolved in sunflower oil. Group eight received Policosanol dissolved in sunflower oil. After sixteen weeks of treatment, the results were as follows: • 1. Group one registered 5% lowering of serum triglycerides. There was no change in HDL cholesterol and an 8% increase in LDL. Systolic blood pressure dropped by average of 3% and diastolic blood pressure dropped by average of 2%. • 2. Group two registered a 30% lowering of triglycerides, 12% decrease in LDL, and 8% increase in HDL. Both systolic and diastolic blood pressure dropped by an average of 10% • 3. Group three registered a 25% lowering of serum triglycerides, 10% decrease of LDL, and 10% increase in HDL. Systolic pressure dropped by average of 12% and diastolic pressure dropped by average of 10% • 4. Group four registered 20% lowering of serum triglycerides, 12% decrease of LDL, and 8% increase in HDL. Systolic and diastolic pressure dropped by average of 10%. • 5. Group five had no change in any of the parameters tested. • 6. Group six registered 3% lowering of serum triglycerides, 6% lowering of LDL and 2% increase of HDL. Sistolic and diastolic pressure dropped by average of 5% • 7. […] Systolic blood pressure dropped by average of 7% and diastolic pressure dropped by average of 5%. • 8. Group eight registered 10% lowering of serum triglycerids, 8% lowering of LDL, and 5% increase of HDL.

hyperlipidemic rabbits = conditions: cholesterol-rich diet; cited from earlier work
interleukin-1-beta = conditions: cited from earlier work
[2] = compared with oleuropein, tyrosol, hydroxytyrosol; cited from earlier work

Row | Structure (SMILES) | diastolic blood pressure dropped by average of [1] [%] | lowering of serum triglycerides [1] [%] | systolic blood pressure dropped by average of [1] [%] | concentration of interleukin-1-beta (interleukin-1-beta) | other results
1 | C=CCS[S+]([O-])CC=C (stereo not drawn) [Group six, allicin] | 5 | 3 | 5 | – | decrease in LDL [1]: 6%; increase in HDL [1]: 2%
2 | C/C=C1/[C@H](O[C@@H]2O[C@H](CO)[C@@H](O)[C@H](O)[C@H]2O)OC=C(C(=O)OC)[C@H]1CC(=O)OCCc1ccc(O)c(O)c1 [Group seven, oleuropein] | 5 | 12 | 7 | – | –
3 | C=CCS[S+]([O-])CC=C (stereo not drawn) [allicin] | – | – | – | – | effect on the serum lipid profile (hyperlipidemic rabbits): beneficial effect
4 | C/C=C1/[C@H](O[C@@H]2O[C@H](CO)[C@@H](O)[C@H](O)[C@H]2O)OC=C(C(=O)OC)[C@H]1CC(=O)OCCc1ccc(O)c(O)c1 [oleuropein glycoside] | – | – | – | decreased | –
5 | O=C(O)/C=C/c1ccc(O)c(O)c1 [carreic acid] | – | – | – | decreased | –
6 | COc1cc(CCO)ccc1O [homovanillic alcohol] | – | – | – | – | antioxidant potency [2]: significantly more potent antioxidant than the other phenolics
